Laboratory results: US7365069B2, “Pyrimidone derivatives” (Bexel Pharmaceuticals Inc., priority 2002, dated 2008)

Columns and labels:
Male Wistar rats = assay: Rat carrageenan paw edema test; type: in vivo; conditions: 5 mg/kg body weight, oral, paw volume 3 hours after carrageenan, read-out: Rat Paw Edema model % inhibition
Method: Rat Carrageenan Paw Edema Test
The carrageenan paw edema test is performed as described by Winter et al (Proc. Soc. Exp. Biol. Med, 111, 544, 1962). Male Wistar rats are selected and the body weights are equivalent within each group. The rats are fasted for eighteen hours with free access to water. The rats are dosed orally with the test compound suspended in vehicle containing 0.5% methylcellulose. The control rats are administered the vehicle alone. After an hour, the rats are injected with 0.1 ml of 1% Carrageenan solution in 0.9% saline into the sub-plantar surface of the right hind paw. Paw volume is measured using water plethysmograph before and after 3 hours of carrageenan injection. The average of foot swelling in drug treated animals is compared with that of control animals. Anti-inflammatory activity is expressed as the percentage inhibition of edema compared with control group [Arzneim-Forsch/Drug Res., 43(I), 1, 44-50,1993; Ottemess and Bliven, Laboratory Models for Testing NSAIDs, In Non-Steroidal Anti-Inflammatory Drugs, (J. Lombardino, ed. 1985)]. In order to evaluate their role on the ulcer formation, the animals are sacrificed and the stomach is taken out and flushed with 1% formalin. The stomach is opened along the greater curvature. The haemorrhagic puncta and sulci are identified microscopically and images are captured. The stomach lesions are calculated.

IL-6 = IL-6 production in LPS-stimulated human whole blood; type: cell-based; conditions: LPS 4 h
Method: This assay determines the effect of test compounds on the production of IL-6 from human whole blood. Compounds are tested for their ability to downregulate the production of IL-6 in activated whole blood. The test compounds are pre-incubated for 15 minutes at 37° C. and then stimulated with Lipopolysaccharide (Salmonella abortus equi, 1 μg/ml) for 4 h at 37° C. in 5% CO2. The levels of Interleukin-6 are estimated using Enzyme linked Immunosorbent assay performed in a 96 well format as per the procedure of the manufacturer (Cayman Chemical, Ann Arbor, USA).

TNF-α = TNF-α production in LPS-stimulated human whole blood; type: cell-based; conditions: LPS 4 h
Method: Tumor Necrosis Factor Alpha (TNF-α)
This assay determines the effect of test compounds on the production of TNF-α in human whole blood. TNF-α assay is carried out as described by Armin hatzelmann and Christian Schudt (J Pharm Exp Ther 297, 261, 2001). Compounds are tested for their ability to inhibit the activity of TNF-α in human whole blood. The test compounds are pre-incubated for 15 minutes at 37° C. and then stimulated with Lipopolysaccharide (Salmonella abortus equi, 1 μg/ml) for 4 h at 37° C. in 5% CO2. The levels of TNF-α are estimated using Enzyme linked Immunosorbent assay performed in a 96 well format as per the procedure of the manufacturer (Cayman Chemical, Ann Arbor, USA).

COX-2 = target: T1, COX-2 (Homo sapiens, UniProt P35354); assay: Human whole blood assay, COX-2 inhibition (PGE2 ELISA after LPS); type: cell-based; conditions: LPS 24 h
T1 construct: incubation of human blood with lipopolysaccharide (LPS), which induces COX-2 production in the blood; endogenous in cells; host or cells: fresh human whole blood from volunteers, treated with aspirin and then LPS
T1 sequence (P35354 18-604): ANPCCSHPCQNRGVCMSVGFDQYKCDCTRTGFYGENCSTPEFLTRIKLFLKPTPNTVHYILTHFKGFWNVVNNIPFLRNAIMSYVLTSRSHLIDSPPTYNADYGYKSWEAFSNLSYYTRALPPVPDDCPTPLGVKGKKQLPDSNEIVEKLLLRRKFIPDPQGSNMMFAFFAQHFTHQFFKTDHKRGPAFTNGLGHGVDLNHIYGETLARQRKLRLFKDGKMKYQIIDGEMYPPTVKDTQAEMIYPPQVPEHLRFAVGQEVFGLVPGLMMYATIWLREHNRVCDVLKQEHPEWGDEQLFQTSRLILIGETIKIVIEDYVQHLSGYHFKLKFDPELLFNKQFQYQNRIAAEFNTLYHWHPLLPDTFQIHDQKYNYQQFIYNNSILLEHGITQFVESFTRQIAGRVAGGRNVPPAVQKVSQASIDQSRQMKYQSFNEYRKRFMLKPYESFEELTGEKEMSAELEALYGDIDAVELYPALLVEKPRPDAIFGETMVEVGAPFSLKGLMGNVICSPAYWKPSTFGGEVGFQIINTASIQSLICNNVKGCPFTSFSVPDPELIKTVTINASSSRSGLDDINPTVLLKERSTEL
Method: In Vivo Evaluation of Cyclooxygenase-2 (COX-2) Inhibition Activity
The COX-2 inhibition activities of the compounds illustrated in the examples are determined by the following method.
Human whole blood provides a protein and cell rich milieu appropriate for the study of biochemical efficacy of anti-inflammatory compounds such as selective COX-2 inhibitors. […] This is correlating with the observation that COX-2 inhibitors have no effect on prostaglandin E2 (PGE2) production in normal blood. These inhibitors are active only after incubation of human blood with lipopolysaccharide (LPS), which induces COX-2 production in the blood.
Fresh blood is collected in tubes containing potassium EDTA by vein puncture from make volunteers. The subjects should have no apparent inflammatory conditions and not taken NSAIDs for at least 7 days prior to blood collection. Blood is treated with aspirin in vitro (10 μg/ml, at time zero) to inactivate COX-1, and then with LPS (10 μg/ml) along with test agents or vehicle. The blood is incubated for 24 h at 37° C., after which the tubes are centrifuged, the plasma is separated and stored at −80° C. (J. Pharmacol. Exp. Ther, 271, 1705, 1994; Proc. Natl. Acad. Sci. USA., 96, 7563, 1999). The plasma is assayed for PGE2 using Cayman ELISA kit as per the procedure outlined by the manufacturer (Cayman Chemicals, Ann Arbor, USA).

NCI-H460 = assay: DTP human tumor cell line one-dose prescreen, NCI-H460; type: cell-based; conditions: 48 hours, Alamar Blue, test/control, read-out: Percentage growth Lung NCI-H460
Method: (§1) DTP Human Tumor Cell Line Screen
(§2) Methodology of the In Vitro Cancer Screen
(§3) The current assay utilizes a 384 well plate format and fluorescent staining technologies resulting in greater screening capacity for testing of synthetic samples.
(§4) The cell lines of the cancer-screening panel are grown in RPMI 1640 medium containing 5% fetal bovine serum and 2 mM L-glutamine. For a typical screening experiment, cells are inoculated into 96 well microtiter plates in 100 μL. After cell inoculation, the microtiter plates are incubated at 37° C., 5% CO2, 95% air and 100% relative humidity for 24 h prior to addition of experimental drugs. The cells are plated a densities of 5000 cells/well (MCF7), 1000 cells/well (NC1—H460), and 7500 cells/well (SF-268) to allow for varying doubling time of the cell lines. Each plate contains all three cell lines, a series of dilutions of standard agents, total kill wells and appropriate controls. Plates are incubated under standard conditions for 24 hours prior to addition of experimental compounds or extracts.
(§5) Addition of Experimental Agents (Pure Compounds)
(§6) Experimental compounds are solubilized in dimethyl sulfoxide (DMSO) at 400-times the desired maximum test concentration (maximum final DMSO concentration of 0.25%) and stored frozen. Compounds are then diluted with complete media with 0.1% gentamicin sulfate (5 μl of test sample in 100% DMSO is added to 565 μl of complete medium). 20 μl of this solution is then dispensed into test wells containing 50 μl of cell suspension to yield a test concentration of 1.00E-04M.
(§7) Two standard drugs, meaning that their activities against the cell lines are well documented, are tested against each cell line: NSC 19893 (5-FU) and NSC 123127 (Adriamycin).
(§8) After compound addition, plates are incubated at standard conditions for 48 hours, 10 μl/well Alamar Blue is added and the plates are incubated for an additional 4 hours. Fluorescence is measured using an excitation wavelength of 530 nm and an emission wavelength of 590 nm.
(§9) Calculation of Percent Test Cell Growth/Control (Untreated) Cell Growth (T/C)
(§10) Percent growth is calculated on a plate-by-plate basis for test wells relative to control wells. Percent Growth is expressed as the ratio of fluorescence of the test well to the average fluorescence of the control wells x 100.

MCF-7 = assay: DTP human tumor cell line one-dose prescreen, MCF-7; type: cell-based; conditions: MCF7, 48 hours, Alamar Blue, test/control, read-out: Percentage growth Breast MCF-7
Method: as §1, §2, §3, §4, §5, §6, §7, §8, §9, §10

SF-268 = assay: DTP human tumor cell line one-dose prescreen, SF-268; type: cell-based; conditions: 48 hours, Alamar Blue, test/control, read-out: Percentage growth CNS SF-268
Method: as §1, §2, §3, §4, §5, §6, §7, §8, §9, §10

melting point | inhibition at 0.25 µM (COX-2) | Compound | inhibition at 0.25 µM (IL-6) | activity at 100 µM (NCI-H460) | activity at 100 µM (MCF-7) | other results
268 to 271 °C | 72.1% | CNc1nc(-c2ccc(SC)cc2)n(-c2ccc(C)cc2)c(=O)c1C#N [Example 54, 5-cyano-4-(methylamino)-1-(4-methylphenyl)-2-[4-(methylthio)phenyl]-6-oxo-1,6-dihydropyrimidine] | – | – | – | inhibition at 1 µM (IL-6; 1 μM): 15.5%; inhibition at 1 µM (TNF-α): 15.6%
199 to 205 °C | – | CNc1nc(-c2ccc(SC)cc2)n(-c2ccc(C)c(C)c2)c(=O)c1C#N [Example 55, 5-cyano-1-(3,4-dimethylphenyl)-4-(methylamino)-2-[4-(methylthio)phenyl]-6-oxo-1,6-dihydropyrimidine] | – | – | – | inhibition at 1 µM (TNF-α): 54.4%; inhibition at 1 µM (COX-2): 8.2%
166 to 169 °C | – | CCOC(=O)c1c(SC)nc(-c2ccc(F)cc2)n(-c2ccc(SC)cc2)c1=O [Example 43, ethyl 2-(4-fluorophenyl)-4-(methylthio)-1-[4-(methylthio)phenyl]-6-oxo-1,6-dihydropyrimidine-5-carboxylate] | 10.4% | 79% | 68% | inhibition at 1 µM (TNF-α): 36.4%; inhibition at 1 µM (COX-2): 27.5%
151 to 155 °C | – | CCOC(=O)c1c(SC)nc(-c2ccc(SC)cc2)n(-c2ccc(F)cc2)c1=O [Example 42, ethyl 1-(4-fluorophenyl)-4-(methylthio)-2-[4-(methylthio)phenyl]-6-oxo-1,6-dihydropyrimidine-5-carboxylate] | – | – | – | inhibition at 0.1 µM (IL-6; 0.1 μM): 59.7%; inhibition at 0.1 µM (TNF-α; 0.1 μM): 49.6%; inhibition at 0.1 µM (COX-2; 0.1 μM): 37.6%

Further lines, the molecule ahead of its results:

Compound | melting point | inhibition at 0.25 µM (COX-2) | inhibition at 0.25 µM (IL-6) | activity at 100 µM (NCI-H460) | activity at 100 µM (MCF-7) | other results
CSc1nc(-c2ccc(S(C)(=O)=O)cc2)n(-c2ccc(C(C)C)cc2)c(=O)c1C#N [Example 11, 5-cyano-1-(4-isopropylphenyl)-2-[4-(methylsulfonyl)phenyl]-4-(methylthio)-6-oxo-1,6-dihydropyrimidine] | 211 to 212 °C | 31.1% | 70.8% | – | – | inhibition in vivo at 5 mg/kg (Male Wistar rats): 63.8%; inhibition at 0.25 µM (TNF-α): 63.8%
CSc1nc(-c2ccccc2)n(-c2ccc(F)cc2)c(=O)c1C#N [Example 17, 5-cyano-1-(4-fluorophenyl)-4-(methylthio)-2-phenyl-6-oxo-1,6-dihydropyrimidine] | 204 to 205 °C | 16.2% | 16.2% | – | – | inhibition at 10 µM (TNF-α): 47.4%
COc1ccc(-n2c(-c3ccc(SC)cc3)nc(SC)c(C#N)c2=O)cc1 [Example 16, 5-cyano-1-(4-methoxyphenyl)-4-(methylthio)-2-[4-(methylthio)phenyl]-6-oxo-1,6-dihydropyrimidine] | 214 to 216 °C | – | – | 95% | 90% | inhibition at 10 µM (TNF-α): 59.8%
CSc1nc(-c2ccc(S(C)(=O)=O)cc2)n(-c2ccc(C)c(C)c2)c(=O)c1C#N [Example 12, 5-cyano-1-(3,4-dimethylphenyl)-2-[4-(methylsulfonyl)phenyl]-4-(methylthio)-6-oxo-1,6-dihydropyrimidine] | 245 to 247 °C | 36.5% | 28.7% | – | – | inhibition in vivo at 5 mg/kg (Male Wistar rats): 41.2%; inhibition at 0.25 µM (TNF-α): 27.2%
CSc1nc(-c2ccccn2)n(-c2ccc(F)cc2)c(=O)c1C#N [Example 29, 5-cyano-1-(4-fluorophenyl)-4-(methylthio)-6-oxo-2-pyridin-2-yl-1,6-dihydropyrimidine] | 221 to 227 °C | – | – | 23% | 80% | activity at 100 µM (SF-268): 92%
CSc1ccc(-n2c(-c3ccncc3)nc(SC)c(C#N)c2=O)cc1 [Example 28, 5-cyano-4-(methylthio)-1-[4-(methylthio)phenyl]-6-oxo-2-pyridin-4-yl-1,6-dihydropyrimidine] | 227 to 229 °C | – | – | 20% | 48% | activity at 100 µM (SF-268): 63%
CSc1ccc(-n2c(-c3cccnc3)nc(SC)c(C#N)c2=O)cc1 [Example 27, 5-cyano-4-(methylthio)-1-[4-(methylthio)phenyl]-6-oxo-2-pyridin-3-yl-1,6-dihydropyrimidine] | 212 to 215 °C | – | – | 14% | 23% | activity at 100 µM (SF-268): 51%
